Target: T1, AvPCP (Trichormus variabilis, UniProt Q3M7N3)
T1 sequence (Q3M7N3 1-234): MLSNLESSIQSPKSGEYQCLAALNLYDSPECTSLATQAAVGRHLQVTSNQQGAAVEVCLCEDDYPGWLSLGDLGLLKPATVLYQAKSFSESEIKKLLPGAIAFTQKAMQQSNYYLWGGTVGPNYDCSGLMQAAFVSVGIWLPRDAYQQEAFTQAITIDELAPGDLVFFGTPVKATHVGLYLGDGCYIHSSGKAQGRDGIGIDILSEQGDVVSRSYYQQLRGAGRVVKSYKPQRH
Assay: hydrolysis of murein tripeptide to Ala-γ-D-Glu and DAP
Type: biochemical
Conditions: assay details only in Supplemental Data

**Q.** Which “hydrolysis of murein tripeptide to Ala-γ-D-Glu and DAP” value does the source give for `C[C@H](N)C(=O)N[C@H](CCC(=O)N[C@@H](CCC[C@@H](N)C(=O)O)C(=O)O)C(=O)O` [Ala-γ-D-Glu-DAP] here?
**A.** Its value is “AvPCP can, indeed, hydrolyze Ala-γ-D-Glu-DAP to Ala-γ-D-Glu and DAP”.
